The record followed here is patent publication US20110060010A1, “SALTS OF 3-(4-AMINO-1-OXO-1,3-DIHYDRO-ISOINDOL-2-YL)PIPERIDINE-2,6-DIONE AND DERIVATIVES THEREOF, OR POLYMORPHS OF SALTS, PROCESS FOR PREPARING SAME AND USE THEREOF” (TIANJIN HEMAY BIO-TECH CO., LTD, priority 2008, published 2011).

Values after ≈ are worked out from the molar mass of the structure shown. Read-outs that look alike come from different tables or passages of the source.

Series [1] can be described thus: physchem.
Procedure: (§1) The sample in each example was scanned with UV spectroscopy in the wavelength range of 190-900 nm. The maximum absorbance was set to 2. All the samples to be determined have the same absorption peak at 304 nm. Although there are other absorption peaks in the range of 205-190 nm, the peak shapes are slightly different and the maximum absorption wavelengths thereof are different. Therefore, the fixed wavelength was determined to be 304 nm in the concentration versus absorbance determination.
(§2) Therefore, this compound was chosen to plot the concentration versus absorbance standard curve.
(§3) To a 100 mL volumetric flask were added the sample in Example 7 (279.26 mg) and distilled water. The volume was determined at 100 ml with distilled water. The concentration of the solution is 2.793 mg/mL. To a 50 mL volumetric flask was added 1 mL, 2 mL, 3 mL and 5 mL of the above solution, respectively. The volume was determined at 50 ml with distilled water. The concentrations of these solutions are 0.056 mg/mL, 0.112 mg/mL, 0.167 mg/mL and 0.279 mg/mL, respectively.
(§4) A small amount of the sample was used to prepare a 5 mL saturated solution. The solution was kept in a constant temperature water bath for 1 hour at 25° C. The supernatant was sampled and diluted to appropriate times according to the range of the standard curve. The concentration was determined by ultraviolet spectrophotometry, and the determined reading was multiplied by the dilution times to obtain the solubility of the sample to be determined.
The conditions of series [2]: 15° C.
Procedure: as §1, §2, §3, §4
Series [3] in a line: Stability of aqueous solution at room temperature. It counts as physicochemical. The settings on record: 17 mg dissolved in 10 mL of deionized water, kept at room temperature for 12 hours. How it is done:
17 mg of 3-(4-amino-1-oxo-1,3-dihydro-isoindol-2-yl)piperidine-2,6-dione bisulfate tetrahydrate (equivalent to 10 mg of 3-(4-amino-1-oxo-1,3-dihydro-isoindol-2-yl)piperidine-2,6-dione) was dissolved in 10 mL of deionized water and kept at room temperature for 12 hours. The content is higher than 98% of labeled amount.

[4] abbreviates: water, 15 °C, thermodynamic from solid.

The term solubility denotes how much of the substance goes into solution per volume. A low value points to a poorly soluble substance. Compound `Nc1cccc2c1CN(C1CCC(=O)NC1=O)C2=O` (stereo not drawn) [Compound (II), in which Y represents H, 3-(4-amino-1-oxo-1,3-dihydro-isoindol-2-yl)piperidine-2,6-dione] displayed a solubility in series [1] (setting [4]) of 0.29 mg/mL (≈ 1120 µM).

`Nc1cccc2c1CN(C1CCC(=O)NC1=O)C2=O.O=S(=O)(O)c1cccc2ccccc12` (stereo not drawn) [Example 4] yielded a solubility in series [2] (in water) of 5.60 mg/mL.

On to `Nc1cccc2c1CN(C1CCC(=O)NC1=O)C2=O.O.O.O.O.O=S(=O)(O)O` (stereo not drawn) [Example 7, 3-(4-amino-1-oxo-1,3-dihydro-isoindol-2-yl)piperidine-2,6-dione bisulfate tetrahydrate], for which the solubility at 1 h in series [1] (15 °C, water, thermodynamic from solid) is more than 1000 mg/mL. The compound also showed a solubility in series [1] (water, thermodynamic from solid) of more than 1000 mg/mL. The “content (of labeled amount)” value in series [3] is recorded as “higher than 98 % of labeled amount”.

For `Nc1cccc2c1CN(C1CCC(=O)NC1=O)C2=O.O=[N+]([O-])O` (stereo not drawn) [Example 10], the Water-solubility in series [2] turned out to be 3.68 mg/mL.

In series [2], `Cl.Nc1cccc2c1CN(C1CCC(=O)NC1=O)C2=O` (stereo not drawn) [Example 11] had a Water-solubility of 1.23 mg/mL.

Take `Nc1cccc2c1CN(C1CCC(=O)NC1=O)C2=O` (stereo not drawn) [Example 12, 3-(4-amino-1-oxo-1,3-dihydro-isoindol-2-yl)piperidine-2,6-dione]: in series [1] (setting [4]), the concentration in solution (solubility at 1 h) was 0.57 mg/mL (≈ 2200 µM).

In the case of `Br.Nc1cccc2c1CN(C1CCC(=O)NC1=O)C2=O` (stereo not drawn) [Example 15], the Water-solubility in series [2] is 5.5 mg/mL.
